# Results reported in patent US12161675B2, “Production method for culture supernatant preparation” (LABORATORY OF CELL APPLIED TECHNOLOGIES, CO, priority 2018, dated 2024).
# Legend:
# [1] = Storage stability of freeze-dried culture supernatant (VEGF protein by ELISA); type: physicochemical; conditions: for Value of VEGF relative quantification at each storage temperature: trehalose 250 mM
# Experimental: As was in Example 5, the culture supernatant after 48 hours in the second culturing step was recovered and the culture supernatant obtained by centrifugal separation (740G, 5 minutes) was divided into 2 groups, a no addition group and a group with addition of 250 mM trehalose (manufactured by Hayashibara Co., Ltd.). Subsequently, the culture supernatant was passed through a filtration filter (KURABO INDUSTRIES Ltd.) having a membrane pore diameter of 0.2 micrometers and aliquoted into syringes (Terumo Corp.). The syringes were sealed in sterile bags, frozen in a −80° C. freezer, and then transferred to the inside of the freeze-drying device (Yamato Scientific Co., Ltd.) to perform freeze drying. After the completion of freeze drying, the syringes were sealed with luer caps for syringe (Terumo Corp.). The freeze-dried samples were stored in a sealed state under three temperature conditions of −80° C., 4° C., and 25° for 3 weeks. After 3 weeks, the freeze-dried samples were resuspended in water for injection (manufactured by Otsuka Pharmaceutical Co., Ltd.) and protein quantification was performed using QUANTIKINE ELISA Human VEGF (manufactured by R&D Systems, Inc.). As a quantitative value, a relative quantitative value of the VEGF protein at each storage temperature was calculated by taking a quantitative value of the VEGF protein included in the culture supernatant stored at −80° C. for 3 weeks as a reference.
# VEGF gene = VEGF gene expression by real-time PCR in adipose tissue-derived mesenchymal stromal cells (ASC); type: cell-based, human; conditions: 48 hours; for Value of mRNA relative quantification (VEGF): 0 ng/mL = 1.00
# Experimental: (§1) Adipose tissue-derived mesenchymal stromal cells extracted by subjecting normal human adipose tissues to an enzyme treatment were cultured using a DME medium (Dulbecco's modified eagle medium manufactured by Gibco, high glucose) including 20% fetal bovine serum (FBS) in a non-treated culture flask (manufactured by FALCON) as primary culture. The primary culture cells right before confluency were recovered by an enzyme treatment, seeded on a non-treated 12-well culture plate (manufactured by Sumitomo Bakelite Co., Ltd.) using the same medium, and cultured until becoming confluent.
# After confirming that the cells became confluent, the medium was removed and the cell surface was rinsed with PBS (Dulbecco's phosphate buffered saline manufactured by DS Pharma Biomedical Co., Ltd.).
# (§2) After rinsing the cells, the medium was replaced with an FBS-free DME medium or HBSS (Hanks' balanced salt solution manufactured by Sigma-Aldrich Co.)-HEPES. Subsequently, 12 wells were divided into 4 groups each consisting of 3 wells, and the FBS-free DME medium was cultured in a 5% CO2 incubator (Reference example) and HBSS-HEPES was cultured in an incubator (Example). The culture supernatant in each well was recovered immediately after replacement (0 hours) and 3 hours, 6 hours, 24 hours, and 48 hours thereafter.
# After recovering the culture supernatant as described above, an RNA extraction solution ISOGEN (Nippon Gene Co., Ltd., No. 319-90211) was added to each well in an amount of 400 microliters and the total RNAs were extracted from the cells in accordance with a conventional method. The precipitate of the total RNAs obtained by using Ethachinmate (Nippon Gene Co., Ltd., No. 312-01791) was dissolved in nuclease-free water. The concentration of the total RNAs was measured using 1.5 microliters of the dissolved RNAs by NanoDrop (Thermo Fisher Scientific). One hundred nanograms of the total RNAs thus obtained were used to synthesize complementary DNA using an iScript cDNA synthesis kit (Bio-Rad Laboratories, Inc., No. 1708891), and the resulting complementary DNA was used for quantifying an expression level of each gene by real-time PCR (Rotor-Gene Q manufactured by QIAGEN).
# The synthesized DNA, primers (QuantiTect Primer Assay, QIAGEN) specific for the gene to be detected and quantified, and a real-time PCR agent (RotorGene SYBR Green, QIAGEN) were mixed, and real-time PCR was performed by using the Rotor-Gene Q system (QIAGEN) to amplify fragments of the gene to be detected and quantified. In this operation, primers specific for β-Actin as a housekeeping gene were used for amplification in the same manner, and this amplification curve was used as a reference to relatively calculate a quantitative value of the gene desired to be detected and quantified. […]
# VEGF protein = VEGF protein in ASC culture supernatant by QUANTIKINE ELISA; type: cell-based, human; conditions: 48 hours; for VEGF concentration: ASC culture supernatant, 0 ng/mL gave 199.5
# Experimental: as §1, §2
# The culture supernatant recovered as described in cell culture and recovery of culture supernatant was passed through a filter having a diameter of 0.22 micrometers to prepare a sample for protein quantification.
# Protein quantification of the sample was performed by using the QUANTIKINE ELISA (Human VEGF, FGF-2) kit from R&D Systems, Inc. and a quantitative value of each protein was obtained in accordance with the protocol of the kit.
# The rinsed cells were divided into 4 groups each consisting of 3 wells and their culture media were replaced with HBSS-HEPES added with PGE1 (Prostandin manufactured by Maruishi Pharmaceutical. Co., Ltd.) at a concentration of 0 ng/ml, 4 ng/ml, 40 ng/ml, and 400 ng/ml, followed by culturing in an incubator (Example). At 48 hours after the replacement, the culture supernatant was recovered from each well and subjected to protein quantification using QUANTIKINE ELISA Human VEGF (manufactured by R&D Systems, Inc.). […] The complementary DNA was used to relatively quantify the VEGF gene expression level by real-time PCR (Rotor-Gene Q manufactured by QIAGEN).
# After rising, three groups were each added with 3 mL, 2 mL, or 1 mL of HBSS (Hanks' balanced salt solution manufactured by Sigma-Aldrich Co.)-HEPES pH7.4 and cultured for 48 hours in an incubator (Example). Subsequently, each culture supernatant was recovered in a 5 mL tube (manufactured by BD Falcon) and the VEGF protein was quantified by using QUANTIKINE ELISA Human VEGF (manufactured by R&D Systems, Inc.). […] Then, the complementary DNA was used to relatively quantify the VEGF gene expression level by real-time PCR (Rotor-Gene Q manufactured by QIAGEN). […]
# [2] = ASC, HBSS-HEPES with PGE1 0 to 400 ng/ml
structure (smiles),measurement,setting,value
"OC[C@H]1O[C@H](O[C@H]2O[C@H](CO)[C@@H](O)[C@H](O)[C@H]2O)[C@H](O)[C@@H](O)[C@@H]1O [Trehalose, trehalose]",Value of VEGF relative quantification at each storage temperature,"[1]; freeze-dried culture supernatant stored 3 weeks at 4° C., relative to −80° C.",0.96
same,Value of VEGF relative quantification at each storage temperature,"[1]; freeze-dried culture supernatant stored 3 weeks at 25° C., relative to −80° C.",0.73
same,Value of VEGF relative quantification at each storage temperature,[1]; freeze-dried culture supernatant stored 3 weeks at −80° C. (reference),1.00
same,VEGF protein after storage of freeze-dried culture supernatant,"[1]; stored 3 weeks under the environment of 25° C., trehalose final concentration 250 mM",suppressed the reduction
CCCCC[C@H](O)/C=C/[C@H]1[C@H](O)CC(=O)[C@@H]1CCCCCCC(=O)O [PGE1],Value of mRNA relative quantification (VEGF),VEGF gene; ASC in HBSS-HEPES with PGE1 4 ng/mL,0.88
same,Value of mRNA relative quantification (VEGF),VEGF gene; ASC in HBSS-HEPES with PGE1 40 ng/mL,1.04
same,Value of mRNA relative quantification (VEGF),VEGF gene; ASC in HBSS-HEPES with PGE1 400 ng/mL,0.97
same,relative quantitative value of the mRNA expression level (VEGF),VEGF gene; [2],remained substantially constant
same,VEGF concentration,VEGF protein; HBSS-HEPES with PGE1 4 ng/mL,201.8 pg/mL
same,VEGF concentration,VEGF protein; HBSS-HEPES with PGE1 40 ng/mL,281. 5 pg/mL
same,VEGF concentration,VEGF protein; HBSS-HEPES with PGE1 400 ng/mL,299.0 pg/mL
same,protein amount (VEGF) in culture supernatant,VEGF protein; [2],tended to increase
